The supplement of paper PMC10307832

What was measured:
Experiment in all cases: relative viability (nuclei count vs DMSO), 5 days (fraction); higher = more cells survive
[1] = compound: CC(C)C[C@@H](C(=O)N[C@H](C(=O)OC1CCCC1)c1ccccc1)[C@H](O)C(=O)NO [Tosedostat] + O=C(c1cc(Cc2n[nH]c(=O)c3ccccc23)ccc1F)N1CCN(C(=O)C2CC2)CC1 [Olaparib] (partner 8 µM)
Outline: (§1)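 Values are medians from duplicate plates. Each reflects relative viability, defined as the nuclei count of treated wells over that of vehicle wells. Lung cancer cell lines in 1536-well plates were pin-tool dosed one day after seeding with one drug alone or with a fixed anchor-drug dose plus five library-drug doses (not always all listed) in √10 steps, then fixed, stained and imaged at 4× after 5 days.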

[2] = compound: CC1=NN=C(O1)C2=NN=C(C=C2)N3CCC(CC3)OC4=C(C=CC(=C4)F)Cl + Cc1cc(Nc2cc(N3CCN(C)CC3)nc(Sc3ccc(NC(=O)C4CC4)cc3)n2)n[nH]1 [Tozasertib] (partner 0.1 µM)
Outline: as §1

[3] = compound: CC1=NN=C(O1)C2=NN=C(C=C2)N3CCC(CC3)OC4=C(C=CC(=C4)F)Cl + Nc1ncn([C@H]2C[C@H](O)[C@@H](CO)O2)c(=O)n1 [Decitabine] (partner 2 µM)
Outline: as §1

[4] = compound: CC(C)C[C@@H](C(=O)N[C@H](C(=O)OC1CCCC1)c1ccccc1)[C@H](O)C(=O)NO [Tosedostat] + CS(=O)(=O)CCNCc1ccc(-c2ccc3ncnc(Nc4ccc(OCc5cccc(F)c5)c(Cl)c4)c3c2)o1 [Lapatinib] (partner 2 µM)
Outline: as §1

Cell Line | relative viability ([1]; first compound 0.02 µM) | relative viability ([1]; first compound 0.06325 µM) | relative viability ([1]; first compound 0.2 µM) | relative viability ([1]; first compound 0.6325 µM) | relative viability ([1]; first compound 2 µM) | relative viability ([2]; first compound 0.253 µM) | relative viability ([2]; first compound 0.8 µM) | relative viability ([2]; first compound 2.53 µM) | relative viability ([2]; first compound 8 µM) | relative viability ([3]; first compound 0.253 µM) | relative viability ([3]; first compound 0.8 µM) | relative viability ([3]; first compound 2.53 µM) | relative viability ([3]; first compound 8 µM) | relative viability ([4]; first compound 0.02 µM) | relative viability ([4]; first compound 0.06325 µM) | relative viability ([4]; first compound 0.2 µM) | relative viability ([4]; first compound 0.6325 µM) | relative viability ([4]; first compound 2 µM)
NCI-H2405 | 0.972 | 0.902 | 0.856 | 0.777 | 0.697 | 0.415 | 0.325 | 0.395 | 0.424 | 0.452 | 0.43 | 0.485 | 0.443 | 1.43 | 1.06 | 0.999 | 1.02 | 0.847
NCI-H3122 | 0.631 | 0.593 | 0.574 | 0.508 | 0.562 | 0.151 | 0.137 | 0.144 | 0.155 | 0.376 | 0.31 | 0.412 | 0.281 | 1.09 | 0.99 | 1.07 | 1.07 | 1.04
PC-3 [JPC-3] | 1.11 | 1.11 | 1 | 0.921 | 0.747 | 0.774 | 0.813 | 0.797 | 0.67 | 0.774 | 0.747 | 0.801 | 0.732 | 0.445 | 0.453 | 0.432 | 0.452 | 0.428
PC-14 | 0.264 | 0.256 | 0.193 | 0.152 | 0.122 | 0.523 |  | 0.433 | 0.557 | 0.19 | 0.226 | 0.177 | 0.23 | 0.273 | 0.32 | 0.348 | 0.269 | 0.371
RERF-LC-KJ | 0.903 | 0.999 | 0.829 | 0.757 | 0.747 | 0.341 | 0.351 | 0.367 | 0.322 | 0.574 | 0.561 | 0.52 | 0.521 | 0.824 | 0.908 | 0.855 | 0.821 | 0.879
SK-LU-1 | 0.467 | 0.45 | 0.335 | 0.391 | 0.367 | 0.325 |  | 0.275 | 0.25 | 0.667 | 0.517 | 0.595 | 0.557 | 0.915 | 0.774 | 0.7 | 0.709 | 0.739
SK-MES-1 | 0.719 | 0.672 | 0.698 | 0.601 | 0.404 | 0.633 | 0.641 | 0.551 | 0.521 | 0.369 | 0.388 | 0.356 | 0.326 | 0.41 | 0.482 | 0.473 | 0.472 | 0.472
SW 1573 | 0.493 | 0.42 | 0.363 | 0.372 | 0.281 | 0.131 | 0.13 | 0.181 | 0.246 | 0.517 | 0.471 | 0.482 | 0.378 | 1.18 | 1.12 | 1.19 | 1.05 | 1.05
